US6709840B1, “Anergy associated genes” (The Board of Trustees of the Leland Stanford Junior …, priority 2000, dated 2004)

Key:
Type in all cases: cell-based, murine
11.3.7 T cells = test: Anergy assay: proliferation on restimulation (3H-Thymidine)
Method: Anergy Assays. Resting 11.3.7 T cells were purified on a Lympholyte M (Cedarlane Labs) gradient and washed three times with 1×PBS. Costimulatory incompetent APCs, (B7 negative RT 7.7 fibroblasts), were irradiated at 3000 rads prior to use in antigen-induced anergy cultures. 6×10^6 T cells were mixed with 6×10^6 B7 negative RT7.7 APCs in 20 mls of culture media. […] For ionomycin-induced anergy, 2×10^6 11.3.7 T cells were incubated with 1.5 μM ionomycin (Calbiochem). For full activation, 1 μg/ml PMA was added to the cultures.
At selected time intervals, aliquots of both cultures were harvested, pelleted, and washed twice before adding 10 μl of anti-CD4 microbeads (Millenyl Biotech) to separate CD4+ T cells from the RT 7.7 fibroblast APCs, according to the manufacturer's protocol. As determined by flow cytometry, greater than 95% purity was routinely achieved. To test for the anergic phenotype, 50×10^4 T cells/well were then cultured with irradiated DBA/2 splenocytes and various concentrations of peptide in a 96 well plate. In selected cultures, murine rIL-2 (Genzyme) was added at 5 Units/ml during the restimulation period, to test the viability of the anergized T cells. After 48 hours of culture, the cells were pulsed for 18 hours with 3H-Thymidine, then harvested and counted.

[1] = tested on: IL-2 mRNA in 11.3.7 T cells; test: Real-time quantitative PCR of IL-2 message; conditions: 4 hours ionomycin vs PMA and ionomycin (100%)
Method: (§1) “Real-time” Quantitative PCR. Total RNA was isolated as described above and 0.5 μg was reversed transcribed using the TaqMan reverse transcription reagent kit (PE Applied Biosystems) according to recommended protocols. Subsequently, 1 μl aliquots of cDNA (equivalent to 5 ng of input RNA) were amplified in separate reactions with primer pairs and fluorescent probe sets specific for GAPDH (to generate a standard curve to control for input cDNA amounts) and for target mRNAs identified in the differential display screen. Resting, activated and anergic RNA samples were also amplified using specific primers and a probe for IL-2. Standard cycling conditions and PCR protocols were used for the ABI PRISM 7700 Sequence Detection System (PE Applied Biosystems). […]
(§2) Using the relative standard curve method described in protocols provided by ABI, changes in target RNA expression for the different ddPCR cDNA clones and IL-2 were calculated as fold increases over resting cells. To control for input RNA amounts, the relative amount of GAPDH RNA was determined for each sample (resting, anergic, and activated) from a standard curve generated for GAPDH. […] Standard curves for both target genes and GAPDH were determined by quantitative PCR reactions using serial dilutions of known amounts of cDNA or plasmids containing relevant inserts.

[2] = tested on: 9.3.1-2 (MRC-OX44) mRNA in 11.3.7 T cells; test: Real-time quantitative PCR of ddPCR clone 9.3.1-2
Method: as §1, §2

[3] = tested on: 19.9.6-3 (Nurr2) mRNA in 11.3.7 T cells; test: Real-time quantitative PCR of ddPCR clone 19.9.6-3
Method: as §1, §2

[4] = tested on: 6.5.2-4 (lymphotactin) mRNA in 11.3.7 T cells; test: Real-time quantitative PCR of ddPCR clone 6.5.2-4
Method: as §1, §2

[5] = tested on: A9.5.7-4 (cbl-b) mRNA in 11.3.7 T cells; test: Real-time quantitative PCR of ddPCR clone A9.5.7-4
Method: as §1, §2

[6] = tested on: 1-4 (GRAIL) mRNA in 11.3.7 T cells; test: Real-time quantitative PCR of ddPCR clone 1-4
Method: as §1, §2

[7] = fold over resting T cells (1.0), GAPDH normalized
[8] = ionomycin-induced anergy (ion vs PMA/ion)

Molecule	ionomycin-induced anergy (11.3.7 T cells; 1.5 μM ionomycin, 6 hours incubation)	induction of functional unresponsiveness (11.3.7 T cells; 1.5 μM ionomycin, one hour incubation)	IL-2 mRNA level relative to activated cells [1]	9.3.1-2 mRNA expression, Anergic + ion [2, 7]	9.3.1-2 anergic:activated ratio [2, 8]	19.9.6-3 mRNA expression, Anergic + ion [3, 7]	19.9.6-3 anergic:activated ratio [3, 8]	6.5.2-4 mRNA expression, Anergic + ion [4, 7]	6.5.2-4 anergic:activated ratio [4, 8]	A9.5.7-4 mRNA expression, Anergic + ion [5, 7]	A9.5.7-4 anergic:activated ratio [5, 8]	1-4 mRNA expression, Anergic + ion [6, 7]	1-4 anergic:activated ratio [6, 8]	proliferative response of anergized T cells with IL-2 added (11.3.7 T cells; antigen-induced anergy, rIL-2 5 Units/ml during restimulation)	unresponsiveness with IL-2 added to restimulation cultures (11.3.7 T cells; ionomycin-induced anergy, rIL-2 5 Units/ml during restimulation)
C[C@H](CCC(=O)O)C[C@H](C)C[C@H](C)C(=O)/C=C(\O)[C@H](C)C[C@H](C)C/C=C/[C@@H](C)[C@@H](O)[C@@H](C)[C@@H](O)C[C@@H]1CC[C@@](C)([C@H]2CC[C@@](C)([C@@H](C)O)O2)O1 [Ionomycin, ionomycin]	complete	did not induce a state of functional unresponsiveness	≤ 0.5%	10.2 fold	0.71 fold	21.7 fold	1.1 fold	153 fold	0.84 fold	11.0 fold	1.4 fold	4.0 fold	3.3 fold		
IL-2: murine rIL-2 (Genzyme), 5 Units/ml during restimulation (protein, UniProt P04351 21-169, looked up) Interleukin-2: APTSSSTSSSTAEAQQQQQQQQQQQQHLEQLLMDLQELLSRMENYRNLKLPRMLTFKFYLPKQATELKDLQCLEDELGPLRHVLDLTQSKSFQLEDAENFISNIRVTVVKLKGSDNTFECQFDDESATVVDFLRRWIAFCQSIISTSPQ														induced as strong a proliferative response in the anergized T cells as it did in the resting, control T cells	overcome
